From patent US11725012B2, “Imidazo[1,5-a]pyrazine derivatives as PI3K δ inhibitors” (priority 2016, dated 2023)

Key:
Type in all cases: biochemical
[1] = target: recombinant PI3K (p110δ/p85α) (Homo sapiens, UniProt O00329); experiment: PI3Kδ ADP-Glo kinase assay; details: read-out: PI3Kδ Enzyme activity IC50
Description: Compounds disclosed herein were tested for inhibition of PI3Kδ kinase activity using commercial ADP-Glo™ Kinase Assay (Promega Corporation) and following the manufacture's instruction. Briefly, recombinant PI3K (p110δ/p85α) enzyme, lipid kinase substrate and a serial dilution of compounds disclosed herein were incubated for 0.5 hr at room temperature. ATP was added to initiate the kinase reaction. After incubation for 1 hr at room temperature, ADP-Glo™ reagent was added to terminate the kinase reaction and deplete the remaining ATP. After incubation for 1 hr at room temperature, kinase detection reagent was added to simultaneously convert ADP to ATP and allow the newly synthesized ATP to be measured using a luciferase/luciferin reaction. After incubation for 0.5 hr at room temperature, the luminescence generated was measured on a PHERAstar FS plate reader (BMG LABTECH), The residual enzyme activity in presence of increasing concentrations of compounds was calculated based on the luminescence. The IC50 for each compound was derived from fitting the data to the four-parameter logistic equation by Graphpad Prism software.

[2] = target: recombinant PI3K (p110α/p85α) (Homo sapiens, UniProt P42336); experiment: PI3Kα ADP-Glo kinase assay; details: for IC50: read-out: PI3Kα Enzyme activity IC50
[3] = target: PI3K (p110β/p85α) (Homo sapiens, UniProt P42338); experiment: PI3Kβ ADP-Glo kinase assay; details: for IC50: read-out: PI3Kβ Enzyme activity IC50
[4] = target: PI3K (p110γ) (Homo sapiens, UniProt P48736); experiment: PI3Kγ ADP-Glo kinase assay; details: for IC50: read-out: PI3Kγ Enzyme activity IC50
Chain of PI3K (p110γ) (P48736 whole entry): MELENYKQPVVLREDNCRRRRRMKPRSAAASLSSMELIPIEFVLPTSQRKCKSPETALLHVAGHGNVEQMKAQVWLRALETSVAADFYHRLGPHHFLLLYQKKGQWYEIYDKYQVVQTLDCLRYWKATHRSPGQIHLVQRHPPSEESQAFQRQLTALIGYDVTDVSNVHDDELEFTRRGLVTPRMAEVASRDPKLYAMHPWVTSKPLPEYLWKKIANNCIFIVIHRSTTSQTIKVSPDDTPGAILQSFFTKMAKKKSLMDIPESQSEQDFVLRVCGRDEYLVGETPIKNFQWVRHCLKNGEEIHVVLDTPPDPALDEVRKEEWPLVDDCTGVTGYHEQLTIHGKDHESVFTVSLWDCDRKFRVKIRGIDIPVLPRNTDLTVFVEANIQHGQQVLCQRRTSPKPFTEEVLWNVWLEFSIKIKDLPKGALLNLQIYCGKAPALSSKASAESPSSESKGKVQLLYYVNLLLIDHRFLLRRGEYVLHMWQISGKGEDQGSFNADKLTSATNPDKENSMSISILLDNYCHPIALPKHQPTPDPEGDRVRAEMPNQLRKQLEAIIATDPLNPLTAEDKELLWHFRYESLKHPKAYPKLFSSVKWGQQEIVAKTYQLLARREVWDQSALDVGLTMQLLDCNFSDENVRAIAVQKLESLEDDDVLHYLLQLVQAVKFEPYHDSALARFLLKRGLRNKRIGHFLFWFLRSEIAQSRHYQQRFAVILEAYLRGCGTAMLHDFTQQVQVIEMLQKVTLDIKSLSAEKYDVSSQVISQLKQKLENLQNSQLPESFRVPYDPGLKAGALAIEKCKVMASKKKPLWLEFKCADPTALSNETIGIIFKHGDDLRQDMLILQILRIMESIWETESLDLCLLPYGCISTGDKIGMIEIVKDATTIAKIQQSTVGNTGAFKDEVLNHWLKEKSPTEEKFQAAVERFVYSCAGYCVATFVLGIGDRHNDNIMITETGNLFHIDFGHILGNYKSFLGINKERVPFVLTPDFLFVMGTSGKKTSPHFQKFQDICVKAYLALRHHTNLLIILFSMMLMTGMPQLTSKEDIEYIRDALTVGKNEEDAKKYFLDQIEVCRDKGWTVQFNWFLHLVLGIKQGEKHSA

Chain of recombinant PI3K (p110δ/p85α) (O00329 whole entry): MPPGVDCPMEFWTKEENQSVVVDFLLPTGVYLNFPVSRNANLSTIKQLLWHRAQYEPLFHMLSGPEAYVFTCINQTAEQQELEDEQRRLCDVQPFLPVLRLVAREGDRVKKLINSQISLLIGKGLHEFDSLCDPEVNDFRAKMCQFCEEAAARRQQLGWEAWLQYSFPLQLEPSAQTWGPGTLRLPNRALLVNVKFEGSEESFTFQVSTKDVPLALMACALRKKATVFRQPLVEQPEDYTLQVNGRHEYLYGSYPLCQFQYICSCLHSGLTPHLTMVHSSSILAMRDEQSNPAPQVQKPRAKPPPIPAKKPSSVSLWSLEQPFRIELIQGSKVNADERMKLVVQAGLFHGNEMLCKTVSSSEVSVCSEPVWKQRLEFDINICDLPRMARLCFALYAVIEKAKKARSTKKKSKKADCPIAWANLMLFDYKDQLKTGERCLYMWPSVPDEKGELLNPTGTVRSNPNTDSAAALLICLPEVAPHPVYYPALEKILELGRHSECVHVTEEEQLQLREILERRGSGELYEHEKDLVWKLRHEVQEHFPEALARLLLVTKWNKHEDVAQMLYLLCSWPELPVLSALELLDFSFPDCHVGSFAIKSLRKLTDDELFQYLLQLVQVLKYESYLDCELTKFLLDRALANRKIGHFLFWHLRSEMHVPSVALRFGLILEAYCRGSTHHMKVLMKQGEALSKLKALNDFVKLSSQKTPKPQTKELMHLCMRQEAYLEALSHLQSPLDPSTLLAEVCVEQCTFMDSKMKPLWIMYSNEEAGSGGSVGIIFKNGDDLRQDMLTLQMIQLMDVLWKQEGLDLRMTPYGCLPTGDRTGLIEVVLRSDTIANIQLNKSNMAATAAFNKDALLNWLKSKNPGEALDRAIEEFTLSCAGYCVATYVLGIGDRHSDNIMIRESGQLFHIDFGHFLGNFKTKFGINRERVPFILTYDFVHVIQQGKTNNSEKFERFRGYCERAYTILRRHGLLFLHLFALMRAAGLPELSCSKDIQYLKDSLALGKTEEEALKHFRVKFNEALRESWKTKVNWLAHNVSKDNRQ
Chain of recombinant PI3K (p110δ/p85α) (P27986 whole entry partner): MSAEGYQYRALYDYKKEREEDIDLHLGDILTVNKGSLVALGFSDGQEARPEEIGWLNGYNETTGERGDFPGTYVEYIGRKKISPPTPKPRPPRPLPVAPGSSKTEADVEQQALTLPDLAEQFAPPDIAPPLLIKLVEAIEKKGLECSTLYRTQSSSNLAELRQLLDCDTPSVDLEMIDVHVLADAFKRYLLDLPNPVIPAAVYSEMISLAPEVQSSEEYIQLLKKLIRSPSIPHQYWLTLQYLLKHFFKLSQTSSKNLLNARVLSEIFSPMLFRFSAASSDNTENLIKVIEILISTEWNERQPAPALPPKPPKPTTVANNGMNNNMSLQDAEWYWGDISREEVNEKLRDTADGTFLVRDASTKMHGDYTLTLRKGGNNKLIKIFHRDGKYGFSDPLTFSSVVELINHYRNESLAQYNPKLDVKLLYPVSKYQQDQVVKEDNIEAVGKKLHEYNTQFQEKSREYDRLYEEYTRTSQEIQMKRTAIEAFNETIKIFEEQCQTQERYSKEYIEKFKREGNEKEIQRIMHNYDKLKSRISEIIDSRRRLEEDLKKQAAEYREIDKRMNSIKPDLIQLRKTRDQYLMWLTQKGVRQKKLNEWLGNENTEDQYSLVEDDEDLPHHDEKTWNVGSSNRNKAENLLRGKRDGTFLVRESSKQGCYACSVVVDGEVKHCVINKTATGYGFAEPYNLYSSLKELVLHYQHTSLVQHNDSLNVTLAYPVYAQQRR
Chain of recombinant PI3K (p110α/p85α) (P42336 whole entry): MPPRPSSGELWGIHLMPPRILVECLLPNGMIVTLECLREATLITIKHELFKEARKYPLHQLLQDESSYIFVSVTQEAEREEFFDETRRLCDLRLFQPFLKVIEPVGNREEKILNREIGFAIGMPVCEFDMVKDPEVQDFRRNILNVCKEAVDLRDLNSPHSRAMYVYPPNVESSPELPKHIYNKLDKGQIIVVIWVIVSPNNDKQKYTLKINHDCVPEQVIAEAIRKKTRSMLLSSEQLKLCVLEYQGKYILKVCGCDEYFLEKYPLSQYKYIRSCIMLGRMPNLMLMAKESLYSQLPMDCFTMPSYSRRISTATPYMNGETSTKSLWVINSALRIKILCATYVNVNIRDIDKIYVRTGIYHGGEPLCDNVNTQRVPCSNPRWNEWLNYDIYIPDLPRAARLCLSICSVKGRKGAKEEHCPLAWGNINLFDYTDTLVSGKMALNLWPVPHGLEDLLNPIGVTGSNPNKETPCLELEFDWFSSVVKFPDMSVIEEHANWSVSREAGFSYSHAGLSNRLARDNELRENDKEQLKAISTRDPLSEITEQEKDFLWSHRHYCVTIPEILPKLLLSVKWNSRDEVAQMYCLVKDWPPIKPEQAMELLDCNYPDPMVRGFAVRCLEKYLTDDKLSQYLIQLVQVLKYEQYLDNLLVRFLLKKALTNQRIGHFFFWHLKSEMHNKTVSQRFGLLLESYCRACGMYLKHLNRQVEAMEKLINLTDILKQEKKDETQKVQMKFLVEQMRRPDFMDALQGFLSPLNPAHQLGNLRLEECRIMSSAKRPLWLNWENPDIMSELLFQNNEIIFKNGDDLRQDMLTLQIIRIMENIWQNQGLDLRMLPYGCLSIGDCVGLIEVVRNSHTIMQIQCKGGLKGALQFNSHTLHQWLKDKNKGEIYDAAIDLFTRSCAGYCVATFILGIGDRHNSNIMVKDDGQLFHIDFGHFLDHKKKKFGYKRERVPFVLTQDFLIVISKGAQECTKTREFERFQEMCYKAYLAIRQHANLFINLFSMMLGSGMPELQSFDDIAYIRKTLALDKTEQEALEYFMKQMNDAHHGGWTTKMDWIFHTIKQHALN
Chain of recombinant PI3K (p110α/p85α) (P27986 whole entry partner): as the sequence (P27986 whole entry partner) above
Chain of PI3K (p110β/p85α) (P42338 whole entry): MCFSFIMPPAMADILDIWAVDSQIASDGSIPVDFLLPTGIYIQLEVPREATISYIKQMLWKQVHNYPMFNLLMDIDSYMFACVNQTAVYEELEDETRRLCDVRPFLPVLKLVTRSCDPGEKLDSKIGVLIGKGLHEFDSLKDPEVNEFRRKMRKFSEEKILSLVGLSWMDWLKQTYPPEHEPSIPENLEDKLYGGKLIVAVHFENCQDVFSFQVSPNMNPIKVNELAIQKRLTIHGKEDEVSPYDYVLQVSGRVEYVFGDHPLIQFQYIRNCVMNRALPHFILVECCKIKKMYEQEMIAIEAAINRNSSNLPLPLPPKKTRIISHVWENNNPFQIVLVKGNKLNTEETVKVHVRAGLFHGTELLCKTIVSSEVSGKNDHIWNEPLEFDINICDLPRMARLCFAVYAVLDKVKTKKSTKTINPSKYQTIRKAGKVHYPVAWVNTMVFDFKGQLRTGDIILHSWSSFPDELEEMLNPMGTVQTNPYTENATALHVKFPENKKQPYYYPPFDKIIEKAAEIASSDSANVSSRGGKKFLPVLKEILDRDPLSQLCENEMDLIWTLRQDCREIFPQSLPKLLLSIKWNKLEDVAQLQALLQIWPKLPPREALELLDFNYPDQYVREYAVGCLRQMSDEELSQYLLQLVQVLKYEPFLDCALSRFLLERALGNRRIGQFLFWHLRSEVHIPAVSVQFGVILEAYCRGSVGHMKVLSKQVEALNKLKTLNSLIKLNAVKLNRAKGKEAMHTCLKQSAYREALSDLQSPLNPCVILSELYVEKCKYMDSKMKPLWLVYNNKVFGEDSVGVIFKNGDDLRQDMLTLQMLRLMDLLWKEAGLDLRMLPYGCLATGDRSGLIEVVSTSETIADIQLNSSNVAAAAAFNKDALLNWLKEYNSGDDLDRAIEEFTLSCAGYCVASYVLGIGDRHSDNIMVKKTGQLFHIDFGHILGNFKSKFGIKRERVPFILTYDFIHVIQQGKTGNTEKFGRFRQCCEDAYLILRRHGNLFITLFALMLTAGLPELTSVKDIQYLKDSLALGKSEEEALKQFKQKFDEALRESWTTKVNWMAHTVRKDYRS
Chain of PI3K (p110β/p85α) (P27986 whole entry partner): as the sequence (P27986 whole entry partner) above

| Compound | IC50 [1] | IC50 [2] | IC50 [3] | IC50 [4] | inhibition at 0.5 µM ([2]; read-out: PI3Kα max inhibition (%) at 0.5 μM) | inhibition at 0.5 µM ([3]; read-out: PI3Kβ max inhibition (%) at 0.5 μM) | inhibition at 0.5 µM ([4]; read-out: PI3Kγ max inhibition (%) at 0.5 μM) |
| --- | --- | --- | --- | --- | --- | --- | --- |
| Cc1nc([C@@H](C)c2cc(Cl)c(F)c(-c3ccc(C(=O)NCCO)nc3)c2OC(C)C)n2ccnc(N)c12 [Compound 62, (S)-5-(3-(1-(8-amino-1-methylimidazo[1,5-a]pyrazin-3-yl)ethyl)-5-chloro-6-fluoro-2-isopropoxyphenyl)-N-(2-hydroxyethyl)picolinamide] | 0.82 nM | 5200 nM | 3600 nM | 2600 nM | – | – | – |
| Cc1nc([C@@H](C)c2cc(Cl)c(F)c(-c3ccc(C(N)=NO)nc3)c2OC(C)C)n2ccnc(N)c12 [Compound 60] | 1.6 nM | 4300 nM | 4200 nM | 2800 nM | – | – | – |
| CC(C)Oc1c(C(C)c2nc(Cl)c3c(N)nccn23)cc(Cl)c(F)c1C1CNC(=O)C1 (single isomer, unassigned) [Compound 48A, 4-(3-(1-(8-amino-1-chloroimidazo[1,5-a]pyrazin-3-yl)ethyl)-5-chloro-6-fluoro-2-isopropoxyphenyl)pyrrolidin-2-one] | 0.4 nM | 4800 nM | 440 nM | 800 nM | – | – | – |
| Cc1nc([C@@H](C)c2cc(Cl)c(F)c(-c3ccc(C(=O)N4CCC[C@H]4C(=O)O)nc3)c2OC(C)C)n2ccnc(N)c12 [Compound 67, (5-(3-((S)-1-(8-amino-1-methylimidazo[1,5-a]pyrazin-3-yl)ethyl)-5-chloro-6-fluoro-2-isopropoxyphenyl)picolinoyl)-L-proline] | 0.47 nM | 5200 nM | 460 nM | 1200 nM | – | – | – |
| CCOc1c(C(C)c2nc(Cl)c3c(N)nccn23)cc(Cl)c(F)c1C1CCOCC1 (single isomer, unassigned) [Compound 49A, 1-chloro-3-(1-(5-chloro-2-ethoxy-4-fluoro-3-(tetrahydro-2H-pyran-4-yl)phenyl)ethyl)imidazo[1,5-a]pyrazin-8-amine] | 0.49 nM | 2100 nM | 260 nM | 440 nM | – | – | – |
| CCOc1c([C@H](C)c2nc(Cl)c3c(N)nccn23)cc(Cl)c(C)c1-c1ccc(C)nc1 [Compound 8A] | 0.51 nM | 1300 nM | 580 nM | 300 nM | – | – | – |
| Cc1c(Cl)cc(C(C)c2nc(Br)c3c(N)nccn23)c(OC(C)C)c1-c1ccc(C(F)(F)F)nc1 (stereo not drawn) [Compound 38, 1-bromo-3-(1-(5-chloro-2-isopropoxy-4-methyl-3-(6-(trifluoromethyl)pyridin-3-yl)phenyl)ethyl)imidazo[1,5-a]pyrazin-8-amine] | 19 nM | > 200000 nM | 30000 nM | 2800 nM | – | – | – |
| CCOc1c(C(C)c2nc(Cl)c3c(N)nccn23)cc(Cl)c(C)c1-c1ccc(C(F)(F)F)nc1 (stereo not drawn) [Compound 25, 1-chloro-3-(1-(5-chloro-2-ethoxy-4-methyl-3-(6-(trifluoromethyl)pyridin-3-yl)phenyl)ethyl)imidazo[1,5-a]pyrazin-8-amine] | 2.6 nM | 3000 nM | 2600 nM | 1400 nM | – | – | – |
| CCOc1c(C(C)c2nc(Cl)c3c(N)nccn23)cc(Cl)c(F)c1-c1ccc(C(F)(F)F)nc1 (stereo not drawn) [Compound 41, 1-chloro-3-(1-(5-chloro-2-ethoxy-4-fluoro-3-(6-(trifluoromethyl)pyridin-3-yl)phenyl)ethyl)imidazo[1,5-a]pyrazin-8-amine] | 3.2 nM | 2700 nM | 3100 nM | 2100 nM | – | – | – |
| CCOc1c(C(C)c2nc(Cl)c3c(N)nccn23)cc(Cl)c(F)c1-c1ccc(C(=O)N(C)C)nc1 (stereo not drawn) [Compound 13, 5-(3-(1-(8-amino-1-chloroimidazo[1,5-a]pyrazin-3-yl)ethyl)-5-chloro-2-ethoxy-6-fluorophenyl)-N,N-dimethylpicolinamide] | 1.2 nM | 1200 nM | 400 nM | 480 nM | – | – | – |
| CCOc1c(C(C)c2nc(Br)c3c(N)nccn23)cc(Cl)c(C)c1-c1ccc(C(F)(F)F)nc1 (stereo not drawn) [Compound 24, 1-bromo-3-(1-(5-chloro-2-ethoxy-4-methyl-3-(6-(trifluoromethyl)pyridin-3-yl)phenyl)ethyl)imidazo[1,5-a]pyrazin-8-amine] | 2.9 nM | 4000 nM | 1600 nM | 2100 nM | – | – | – |
| CCOc1c(C(C)c2nc(Br)c3c(N)nccn23)cc(Cl)c(C)c1-c1cncc(C(F)(F)F)c1 (stereo not drawn) [Compound 39, 1-bromo-3-(1-(5-chloro-2-ethoxy-4-methyl-3-(5-(trifluoromethyl)pyridin-3-yl)phenyl)ethyl)imidazo[1,5-a]pyrazin-8-amine] | 5.7 nM | 3200 nM | 2000 nM | 1600 nM | – | – | – |
| COc1ccc(-c2c(C)c(Cl)cc(C(C)c3nc(Br)c4c(N)nccn34)c2OC)cn1 (stereo not drawn) [Compound 20, 1-bromo-3-(1-(5-chloro-2-methoxy-3-(6-methoxypyridin-3-yl)-4-methylphenyl)ethyl)imidazo[1,5-a]pyrazin-8-amine] | 3.2 nM | 2300 nM | 930 nM | 740 nM | – | – | – |
| CCOc1c([C@H](C)c2nc(Cl)c3c(N)nccn23)cc(Cl)c(C)c1-c1ccc(Cl)nc1 [Compound 27A] | 1.1 nM | 2200 nM | 400 nM | 1000 nM | – | – | – |
| CC(C)Oc1c(C(C)c2nc(Cl)c3c(N)nccn23)cc(Cl)c(F)c1-c1ccc(C(=O)O)nc1 (stereo not drawn) [Compound 18, 5-(3-(1-(8-amino-1-chloroimidazo[1,5-a]pyrazin-3-yl)ethyl)-5-chloro-6-fluoro-2-isopropoxyphenyl)picolinic Acid] | 1.3 nM | 7100 nM | 1100 nM | 340 nM | – | – | – |
| CCOc1c(C(C)c2nc(Cl)c3c(N)nccn23)cc(Cl)c(Cl)c1-c1ccc(C(F)(F)F)nc1 (stereo not drawn) [Compound 36, 1-chloro-3-(1-(4,5-dichloro-2-ethoxy-3-(6-(trifluoromethyl)pyridin-3-yl)phenyl)ethyl)imidazo[1,5-a]pyrazin-8-amine] | 2.2 nM | 1300 nM | 580 nM | 730 nM | – | – | – |
| Cc1nc([C@@H](C)c2cc(Cl)c(F)c(-c3ccc(C(=O)N4CC(C(=O)O)C4)nc3)c2OC(C)C)n2ccnc(N)c12 [Compound 65, (S)-1-(5-(3-(1-(8-amino-1-methylimidazo[1,5-a]pyrazin-3-yl)ethyl)-5-chloro-6-fluoro-2-isopropoxyphenyl)picolinoyl)azetidine-3-carboxylic Acid] | 0.71 nM | 5400 nM | 1200 nM | 1600 nM | – | – | – |
| Cc1nc([C@@H](C)c2cc(Cl)c(F)c(-c3ccc(C(=O)N4CCC(O)CC4)nc3)c2OC(C)C)n2ccnc(N)c12 [Compound 61, (S)-(5-(3-(1-(8-amino-1-methylimidazo[1,5-a]pyrazin-3-yl)ethyl)-5-chloro-6-fluoro-2-isopropoxyphenyl)pyridin-2-yl)(4-hydroxypiperidin-1-yl)methanone] | 0.58 nM | 2900 nM | 6100 nM | 3800 nM | – | – | – |
| CCOc1c(C(C)c2nc(Cl)c3c(N)nccn23)cc(Cl)c(C)c1-c1ccc(=O)[nH]c1 (stereo not drawn) [Compound 15, 5-(3-(1-(8-amino-1-chloroimidazo[1,5-a]pyrazin-3-yl)ethyl)-5-chloro-2-ethoxy-6-methylphenyl)pyridin-2(1H)-one] | 1.2 nM | 830 nM | 320 nM | 320 nM | – | – | – |
| CCOc1c(C(C)c2nc(Cl)c3c(N)nccn23)cc(Cl)c(C)c1N1CCOCC1 (single isomer, unassigned) [Compound 51A, 1-chloro-3-(1-(5-chloro-2-ethoxy-4-methyl-3-morpholinophenyl)ethyl)imidazo[1,5-a]pyrazin-8-amine] | 0.79 nM | 2100 nM | 480 nM | 1200 nM | – | – | – |
| COc1c(C(C)c2nc(Br)c3c(N)nccn23)cc(Cl)c(C)c1-c1ccc(N2CCOCC2)nc1 (stereo not drawn) [Compound 23, 1-bromo-3-(1-(5-chloro-2-methoxy-4-methyl-3-(6-morpholinopyridin-3-yl)phenyl)ethyl)imidazo[1,5-a]pyrazin-8-amine] | 15 nM | – | – | – | 16% | 12% | -19% |
| Cc1nc([C@@H](C)c2cc(Cl)c(F)c(-c3ccc(C(=O)NC4(C(=O)O)CC4)nc3)c2OC(C)C)n2ccnc(N)c12 [Compound 68, (S)-1-(5-(3-(1-(8-amino-1-methylimidazo[1,5-a]pyrazin-3-yl)ethyl)-5-chloro-6-fluoro-2-isopropoxyphenyl)picolinamido)cyclopropane-1-carboxylic Acid] | 0.33 nM | 3400 nM | 400 nM | 960 nM | – | – | – |
| COc1cc(C(C)n2cc(Br)c3c(N)ncnc32)n(-c2ccccc2)c(=O)c1C#N (stereo not drawn) [Compound 57, 6-(1-(4-amino-5-bromo-7H-pyrrolo[2,3-d]pyrimidin-7-yl)ethyl)-4-methoxy-2-oxo-1-phenyl-1,2-dihydropyridine-3-carbonitrile] | 20 nM | 83000 nM | 1240 nM | 1900 nM | – | – | – |
| Cc1c(Cl)cc([C@H](C)c2nc(Br)c3c(N)nccn23)c(OC(C)C)c1-c1ccc(C(F)(F)F)nc1 [Compound 38A] | 5.4 nM | > 200000 nM | 28000 nM | 740 nM | – | – | – |
